Tests used:
[1] = system: eIF4E phosphorylation at serine 209 in various tumor cell lines; conditions: cited from earlier work
[2] = target: T1, death-associated protein kinase-related apoptosis-inducing protein kinase 1 (DRAK1) (Homo sapiens, UniProt Q9UEE5); experiment: Off-target kinase screen DRAK1; assay type: biochemical; conditions: 1 μM test compound
T1 sequence (Q9UEE5 1-414): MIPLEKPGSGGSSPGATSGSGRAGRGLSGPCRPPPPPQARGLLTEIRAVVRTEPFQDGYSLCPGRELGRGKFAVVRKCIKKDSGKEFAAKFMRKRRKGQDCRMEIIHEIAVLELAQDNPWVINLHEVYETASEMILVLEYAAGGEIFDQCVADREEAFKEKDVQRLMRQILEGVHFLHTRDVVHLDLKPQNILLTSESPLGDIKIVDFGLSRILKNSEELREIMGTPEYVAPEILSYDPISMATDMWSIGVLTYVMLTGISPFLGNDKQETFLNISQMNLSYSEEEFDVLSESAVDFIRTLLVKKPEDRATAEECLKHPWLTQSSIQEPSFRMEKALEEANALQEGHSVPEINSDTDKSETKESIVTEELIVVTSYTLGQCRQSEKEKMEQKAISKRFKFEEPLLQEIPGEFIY
From the text: (§1) These kinases were chosen because they are the only known off-target hit kinases for eFT508. These assays were done using recombinant human kinases (CLK4, DRAK1 and PKG2) in a substrate phosphorylation assay. % activity remaining after MNK inhibitor treatment is indicated in Table 12.

[3] = Liver microsome stability, rat; assay type: in vitro ADME; conditions: Rat liver microsomes (#); for microsomal CLint: read-out: CLint rodent; for half-life: read-out: Rodent liver microsomes t1/2
[4] = system: P-gp (human MDR1, ABCB1); experiment: MDCK-MDR1 permeability (blood brain barrier permeability); assay type: in vitro ADME, Canine; conditions: dog; for Papp A→B at 5 μM: MDCK-MDR1, Apical to basolateral transport; for Papp A→B at 5 μM / Papp B→A at 5 μM: average of two experiments; for Papp B→A at 5 μM: MDCK-MDR1, Basolateral to apical transport; for efflux ratio at 5 μM: MDCK-MDR1, 5 μM, read-out: Efflux ratio (ratio B-A/A-B)
[5] = target: Cdc2-like kinase 4 (CLK4) (Homo sapiens, UniProt Q9HAZ1); experiment: Off-target kinase screen CLK4; assay type: biochemical; conditions: 1 μM test compound
Cdc2-like kinase 4 (CLK4), sequence (Q9HAZ1 whole entry): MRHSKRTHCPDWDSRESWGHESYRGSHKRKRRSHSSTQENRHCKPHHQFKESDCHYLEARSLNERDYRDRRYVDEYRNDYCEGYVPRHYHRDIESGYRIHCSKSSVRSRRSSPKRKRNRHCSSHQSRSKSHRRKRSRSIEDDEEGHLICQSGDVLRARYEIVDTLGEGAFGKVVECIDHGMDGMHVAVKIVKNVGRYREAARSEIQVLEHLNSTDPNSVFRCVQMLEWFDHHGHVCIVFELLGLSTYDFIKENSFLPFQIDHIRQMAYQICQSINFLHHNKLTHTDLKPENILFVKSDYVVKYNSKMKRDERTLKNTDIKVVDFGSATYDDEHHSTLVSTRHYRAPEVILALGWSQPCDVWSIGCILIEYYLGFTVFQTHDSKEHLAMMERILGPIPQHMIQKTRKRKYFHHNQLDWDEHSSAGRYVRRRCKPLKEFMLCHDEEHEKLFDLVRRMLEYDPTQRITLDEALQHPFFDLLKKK
From the text: as §1

[6] = Liver microsome stability, human; assay type: in vitro ADME; conditions: liver microsomes; for half-life: read-out: Human liver microsomes t1/2
[7] = Liver microsome stability, mouse; assay type: in vitro ADME; conditions: for half-life: mouse, liver microsomes
[8] = target: T2, protein kinase G 2 (PKG2) (Homo sapiens, UniProt Q13237); experiment: Off-target kinase screen PKG2; assay type: biochemical; conditions: 1 μM test compound
T2 sequence (Q13237 1-762): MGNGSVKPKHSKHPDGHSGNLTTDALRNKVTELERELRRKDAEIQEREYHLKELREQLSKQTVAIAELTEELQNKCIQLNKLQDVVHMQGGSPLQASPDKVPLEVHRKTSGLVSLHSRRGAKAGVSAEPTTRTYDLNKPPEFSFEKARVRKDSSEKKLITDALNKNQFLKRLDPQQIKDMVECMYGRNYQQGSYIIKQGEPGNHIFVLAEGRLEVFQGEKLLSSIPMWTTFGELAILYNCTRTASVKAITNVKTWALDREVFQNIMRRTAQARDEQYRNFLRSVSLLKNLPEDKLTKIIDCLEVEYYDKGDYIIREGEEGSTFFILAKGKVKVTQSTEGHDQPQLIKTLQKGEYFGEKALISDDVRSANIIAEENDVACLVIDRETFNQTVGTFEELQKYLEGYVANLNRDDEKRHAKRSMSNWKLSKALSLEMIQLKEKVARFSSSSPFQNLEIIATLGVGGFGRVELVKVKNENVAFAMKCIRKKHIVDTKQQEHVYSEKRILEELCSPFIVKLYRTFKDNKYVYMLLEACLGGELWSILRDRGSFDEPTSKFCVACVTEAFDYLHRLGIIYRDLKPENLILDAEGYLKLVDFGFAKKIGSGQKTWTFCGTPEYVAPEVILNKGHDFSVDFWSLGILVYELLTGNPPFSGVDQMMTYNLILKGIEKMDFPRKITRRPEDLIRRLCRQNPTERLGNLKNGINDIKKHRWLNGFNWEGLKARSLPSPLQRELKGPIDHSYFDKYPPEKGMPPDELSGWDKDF
From the text: as §1

[9] = system: diffuse large B cell lymphoma (DLBCL) cell lines; conditions: multiple DLBCL cell lines; cited from earlier work
[10] = system: eIF4E phosphorylation at Serine 209 in the human osteosarcoma (U2OS) cell line; experiment: eIF4E phosphorylation in U2OS cells (fluorescent plate reader); assay type: cell-based; conditions: Homo sapiens, U2OS; eIF4E phosphorylation at Serine 209, 2 hours exposure
Protocol: The ability of MNK inhibitors described herein to inhibit eIF4E phosphorylation at Serine 209 in the human osteosarcoma (U2OS) cell line was tested by exposing the cells to compound for 2 hours and then measuring eIF4E phosphorylation with a phosphorylation-specific antibody in a fluorescent plate reader.

[11] = system: eIF4E phosphorylation at Serine 209 in Karpas 299; experiment: eIF4E phosphorylation in Karpas 299 cells (sandwich ELISA); assay type: cell-based; conditions: Homo sapiens, read-out: Karpas 299 cell IC50
Protocol: The ability of MNK inhibitors described herein to inhibit eIF4E phosphorylation at Serine 209 in Karpas 299, Human Non-Hodgkin's Ki-positive Large Cell Lymphoma cell line was tested by sandwich enzyme linked immune-absorbance assay.

[12] = system: eIF4E phosphorylation at Serine 209 in the human embryonic kidney (HEK) 293 cell line; experiment: eIF4E phosphorylation in HEK 293 cells (fluorescent plate reader); assay type: cell-based; conditions: eIF4E phosphorylation at Serine 209, 2 hours exposure
Procedure, shortened: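 HEK-293 cells were treated with compound for 2 h, then methanol-fixed and Triton-permeabilized. Ser209 phospho-eIF4E was stained with primary antibody (1:2000, overnight) and an Alexa Fluor 488 secondary. Fluorescence was normalized to DAPI, and IC50 was fitted from concentration-response data.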

[13] = target: MNK1 (Homo sapiens, UniProt Q9BUB5); experiment: MNK1 substrate phosphorylation assay; assay type: biochemical; conditions: recombinant human kinase
MNK1, sequence (Q9BUB5 whole entry): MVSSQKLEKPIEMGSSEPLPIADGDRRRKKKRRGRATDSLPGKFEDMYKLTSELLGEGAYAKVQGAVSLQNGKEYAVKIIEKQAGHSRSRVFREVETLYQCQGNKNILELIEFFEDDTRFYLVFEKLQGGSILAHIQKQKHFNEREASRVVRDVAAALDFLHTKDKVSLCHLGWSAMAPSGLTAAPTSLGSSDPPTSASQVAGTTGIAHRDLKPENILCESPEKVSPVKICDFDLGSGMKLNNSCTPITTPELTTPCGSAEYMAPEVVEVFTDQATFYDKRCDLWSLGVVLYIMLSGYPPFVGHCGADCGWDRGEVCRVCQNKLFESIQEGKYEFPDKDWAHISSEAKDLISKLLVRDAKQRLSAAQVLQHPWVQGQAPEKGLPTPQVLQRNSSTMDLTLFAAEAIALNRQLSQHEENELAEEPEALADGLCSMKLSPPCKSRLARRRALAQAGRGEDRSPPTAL

[14] = target: MNK2 (Homo sapiens, UniProt Q9HBH9); experiment: MNK2 substrate phosphorylation assay; assay type: biochemical; conditions: recombinant human kinase
MNK2, sequence (Q9HBH9 whole entry): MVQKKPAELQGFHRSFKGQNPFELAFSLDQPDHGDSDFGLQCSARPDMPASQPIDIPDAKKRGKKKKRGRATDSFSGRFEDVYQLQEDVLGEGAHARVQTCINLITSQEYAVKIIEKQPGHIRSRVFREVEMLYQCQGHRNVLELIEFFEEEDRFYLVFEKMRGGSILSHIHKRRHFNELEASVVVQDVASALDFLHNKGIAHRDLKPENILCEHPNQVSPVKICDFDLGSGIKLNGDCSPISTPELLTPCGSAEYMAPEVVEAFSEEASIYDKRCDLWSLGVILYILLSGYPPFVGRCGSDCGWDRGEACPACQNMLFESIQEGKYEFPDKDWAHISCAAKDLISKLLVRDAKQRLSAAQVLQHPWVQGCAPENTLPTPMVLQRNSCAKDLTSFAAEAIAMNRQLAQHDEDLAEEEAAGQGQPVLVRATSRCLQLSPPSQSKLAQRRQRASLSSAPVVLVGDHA

[15] = system: MDCK-MDR1; experiment: MDCK-MDR1 permeability (blood brain barrier permeability); assay type: in vitro ADME, Canine; conditions: 5 μM
[16] = system: IL-6 evoked grimace; experiment: IL-6 evoked grimace test; assay type: in vivo, ICR mice
Protocol: Institute for Cancer Research (ICR) mice were used in these experiments. Mice were bred in house at University of Texas at Dallas and used at between 12 and 24 weeks of age. Mice were habituated to plexiglass boxes of approximately 4×6 inches in size with openable tops. Habituation took place over 2 days with animals exposed to the boxes for at least 30 min. A blinded observer scored baseline grimacing using the method previously described by Mogil and colleagues (Langford, et al., Coding of facial expressions of pain in the laboratory mouse. Nat Methods (2010) 7:447-449.). On test day, mice were given test compounds 1 hr prior to injection of interleukin 6 (human recombinant IL-6, R&D Systems) which was given at a dose of 0.1 ng in saline via an intraplantar injection as described previously (Moy et al. The MNK-eIF4E Signaling Axis Contributes to Injury-Induced Nociceptive Plasticity and the Development of Chronic Pain. J Neurosci (2017) 37:7481-7499.). Test compounds were given orally (PO) via a flexible oral gavage canula built for mice. 4ET-01-021 (10.0, 3.0, and 1.0 mg/kg) and 4ET-03-052B (10.0 mg/kg) are efficacious in the IL-6 evoked grimace test in mice. FIG. 5 depicts a comparison of effect size in the IL-6 evoked grimace test. Effect sizes were calculated per mouse by subtracting the baseline grimace score from the sum of the grimace scores for 1 and 3 hr time points. […] FIG. 6 is a graph showing the effect size in the IL-6 evoked grimace test vs. dose of 4ET-01-021.

Structure (SMILES): Cc1cc(Nc2cc(N)ncn2)c(=O)n2c1C(=O)NC21CCCCC1 [eFT508, reference compound]
- IC50 [1]: 2 to 16 nM
- remaining activity at 1 µM [2]: 24%
- microsomal CLint [3]: 2.86 µL/min/mg
- half-life [3]: 8.07 h
- Papp A→B at 5 μM [4]: 26.8 ×10⁻⁶ cm/s
- Papp B→A at 5 μM [4]: 41.7 ×10⁻⁶ cm/s
- remaining activity at 1 µM [5]: 68%
- microsomal CLint [6]: 1.88 µL/min/mg
- half-life [6]: 12.3 h
- half-life ([7]; mouse liver microsomes, Table 11b, read-out: T1/2): 8.07 h
- remaining activity at 1 µM [8]: 100%
- anti-proliferative activity [9]: anti-proliferative activity

Structure (SMILES): Cc1cc(Nc2cc(N)ncn2)c(=O)n2c1C(=O)NC21CCC(O)CC1 (centres unmarked) [Compound 4ET-01-005, 6′-((6-Aminopyrimidin-4-yl)amino)-4-hydroxy-8′-methyl-2′H-spiro[cyclohexane-1,3′-imidazo[1,5-a]pyridine]-1′,5′-dione]
- remaining activity at 1 µM [2]: 41%
- IC50 [10]: 8.2 nM
- IC50 [11]: 26 nM
- efflux ratio at 5 μM [4]: 2.7
- Papp A→B at 5 μM [4]: 0.2 ×10⁻⁶ cm/s
- Papp B→A at 5 μM [4]: 0.6 ×10⁻⁶ cm/s
- remaining activity at 1 µM [5]: 63%
- microsomal CLint [6]: 3.6 µL/min/mg
- half-life [6]: 6.42 h
- microsomal CLint ([7]; Mouse liver microsomes (*), read-out: CLint rodent): 3.53 µL/min/mg
- half-life ([7]; Mouse liver microsomes (*), Table 11a, read-out: Rodent liver microsomes t1/2): 6.55 h
- IC50 ([12]; Homo sapiens, HEK293): 8.2 nM
- IC50 [13]: 9.8 nM
- remaining activity at 1 µM [8]: 100%

Structure (SMILES): Cc1cc(Nc2cc(N)ncn2)c(=O)n2c1C(=O)NC21CCOCC1 [Compound 4ET-01-002, 6-((6-Aminopyrimidin-4-yl)amino)-8-methyl-2′,3′,5′,6′-tetrahydro-2H-spiro[imidazo[1,5-a]pyridine-3,4′-pyran]-1,5-dione]
- remaining activity at 1 µM [2]: 72%
- microsomal CLint [3]: 2.7 µL/min/mg
- half-life [3]: 8.57 h
- IC50 [14]: 2.6 nM
- IC50 [10]: 6.9 nM
- IC50 [11]: 33 nM
- efflux ratio at 5 μM [4]: 2.2
- Papp A→B at 5 μM [4]: 2.6 ×10⁻⁶ cm/s
- Papp B→A at 5 μM [4]: 5.6 ×10⁻⁶ cm/s
- remaining activity at 1 µM [5]: 100%
- microsomal CLint [6]: 2.17 µL/min/mg
- half-life [6]: 10.7 h
- IC50 ([12]; Homo sapiens, HEK293, 2 h): 18.5 nM
- IC50 [13]: 27.9 nM
- remaining activity at 1 µM [8]: 97%

Structure (SMILES): Cc1cc(Nc2cc(NC(=O)C3CC3)ncn2)c(=O)n2c1C(=O)NC21Cc2ccccc2[C@@H]1F (single isomer, unassigned) [Compound 4ET-03-052B, N-(6-((1′-Fluoro-8-methyl-1,5-dioxo-1,1′,3′,5-tetrahydro-2H-spiro[imidazo[1,5-a]pyridine-3,2′-inden]-6-yl)amino)pyrimidin-4-yl)cyclopropanecarboxamide]
- IC50 [14]: 1.63 nM
- Efflux ratio (ratio B-A/A-B) [15]: 2.8
- Papp A-B ([15]; Apical to basolateral transport, average of two experiments): 22.9 ×10⁻⁶ cm/s
- Papp B-A ([15]; Basolateral to apical transport, average of two experiments): 63.3 ×10⁻⁶ cm/s
- T1/2 ([7]; mouse liver microsomes, Table 11b): 2.88 h
- IC50 [12]: 11.7 nM
- IC50 [13]: 19.9 nM
- efficacy in the IL-6 evoked grimace test ([16]; PO 1 hr prior to IL-6, 4ET-01-021 10.0, 3.0 and 1.0 mg/kg, 4ET-03-052B 10.0 mg/kg): efficacious
- effect size in the IL-6 evoked grimace test ([16]; sum of grimace scores at 1 and 3 hr minus baseline): statistically-significant effect sizes

Structure (SMILES): Cc1cc(Nc2cc(NC(=O)C3CC3)ncn2)c(=O)n2c1C(=O)NC21CCC(O)CC1 (centres unmarked) [Compound 4ET-03-015, N-(6-((4-Hydroxy-8′-methyl-1′,5′-dioxo-1′,5′-dihydro-2′H-spiro[cyclohexane-1,3′-imidazo[1,5-a]pyridin]-6′-yl)amino)pyrimidin-4-yl)cyclopropanecarboxamide]
- remaining activity at 1 µM [2]: 16%
- microsomal CLint [3]: 3.18 µL/min/mg
- half-life [3]: 7.27 h
- IC50 [14]: 1.4 nM
- IC50 [10]: 2.4 nM
- IC50 [11]: 3 nM
- efflux ratio at 5 μM [4]: 10
- Papp A→B at 5 μM [4]: 0.9 ×10⁻⁶ cm/s
- Papp B→A at 5 μM [4]: 8.7 ×10⁻⁶ cm/s
- remaining activity at 1 µM [5]: 14%
- microsomal CLint [6]: 2.73 µL/min/mg
- half-life [6]: 8.45 h
- IC50 ([12]; Homo sapiens, HEK293, 2 h): 2.7 nM
- IC50 [13]: 19.1 nM
- remaining activity at 1 µM [8]: 100%

Reference: US20230286983A1 (4E Therapeutics, Inc., priority 2020, published 2023)
